Measured values reported in patent US20010051191A1, “Composition and method for treating non-bacterial cystitis” (priority 2000, published 2001).

Legend:
[1] = test system: patients without positive bacterial cultures localized to the prostatic fluid; assay: Example II: double blind placebo-controlled study using 30 patients; format: in vivo
Experimental: A double blind study using 30 patients without positive bacterial cultures localized to the prostatic fluid are enrolled in a double blind study. Seventeen of the patients receive a composition comprised of quercetin in amount of 500 milligrams, bromelin in an amount of 10 milligrams, and papain in an amount of 10 milligrams as the active ingredients thereof. After a randomized study is completed, an additional fifteen patients are treated in an open label study with only the […]. […] The mean symptom score improves from 21.0 to 13.1 in the group receiving quercetin, but from 20.2 to 18.8 in the placebo group. This represents an improvement of 35%. In those patients which receive only the quercetin, without the papain and bromelin, with obtainable secretions, the white blood cell count in the decreases from 16.8 to 5.3, versus a decrease from 13.1 to 8.3 in the placebo patients.

[2] = Tests of bioavailability of quercetin alone; format: in vivo; conditions: transmural intestinal absorption relatively low
[3] = test system: chronic interstitial cystitis syndromes; conditions: quercetin alone; cited from earlier work

## O=c1c(O)c(-c2ccc(O)c(O)c2)oc2cc(O)cc(O)c12 [quercetin]
[1]; end value of the group
  mean symptom score, after treatment: 13.1
[1]; human, in vivo
  improvement of mean symptom score: 35%
[1]; patients with obtainable secretions, end value
  white blood cell count in secretions, after treatment: 5.3
[1]; patients with obtainable secretions, start value
  white blood cell count in secretions, before treatment: 16.8
[1]; start value of the group
  mean symptom score, before treatment: 21.0
[2]
  bioavailability: does not have a high bioavailability
[3]
  symptomatic response of patients: significant
